{
  "source": "patent US12565673B2",
  "about": "“Methods for the design of nonallosteric sirtuin activating compounds” (Chakrabarti Advanced Technology, LLC, priority 2020, dated 2026)",
  "target": "T1, hSirt3^102-399 (Homo sapiens, UniProt Q9NTG7)",
  "T1 construct": "hSirt3^102-399 was expressed in E. coli Arctic Express (DE3) cells; His-tag (only implied by the HisTrap / imidazole purification); made in house; host or cells: E. coli Arctic Express (DE3)",
  "T1 sequence (Q9NTG7 102-399)": "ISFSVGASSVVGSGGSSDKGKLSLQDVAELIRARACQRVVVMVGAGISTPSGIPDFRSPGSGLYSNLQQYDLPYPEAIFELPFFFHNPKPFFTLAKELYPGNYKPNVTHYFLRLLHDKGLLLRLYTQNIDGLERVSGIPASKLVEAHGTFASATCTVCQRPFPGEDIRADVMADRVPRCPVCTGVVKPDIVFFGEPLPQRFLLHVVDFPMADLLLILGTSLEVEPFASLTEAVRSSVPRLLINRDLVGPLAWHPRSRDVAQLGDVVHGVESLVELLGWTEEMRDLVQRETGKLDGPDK",
  "experiment": "hSirt3 ligand binding assay by microscale thermophoresis (MST)",
  "conditions": "Sirt3.Ac-MnSOD complex (FIG. 9)",
  "protocol": "The binding affinities of ligands to complexes in the catalytic mechanism of SIRT3/MnSOD peptide substrate were measured using microscale thermophoresis (MST; FIG. 9, FIG. 10).\nBriefly, the protein conjugation was done in 1×PBS pH 7.4, 0.05% Pluronic F-127, and the labeled protein was buffer exchanged into 47 mM Tris-HCl pH 8.0, 129 mM NaCl, 2.5 mM KCl, 0.94 mM MgCl2, 5% DMSO, 0.05% Tween-20. We used 2 nM labeled hSirt3 and titrated with varying concentrations of the modulators in the absence and presence of various concentrations of substrates, products and intermediates. The thermophoresis was measured (excitation/emission 653/672 nm) using a Monolith NT. […] Dissociation constants (Kd) were determined using GraFit7 (Erithacus Software) by nonlinear fitting.",
  "data": [
    {"compound": "C=CCc1ccc(O)c(-c2ccc(O)c(CC=C)c2)c1", "note": "[HKL, 5, 3′-Diallyl-2, 4′-dihydroxybiphenyl]", "values": [
      {"measurement": "Kd", "value": "< 10", "unit": "µM"}
    ]}
  ]
}
